Assay results: PubChem BioAssay (NCI)
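Each compound was tested at five concentrations against cells in 96-well plates for 48 hours. GI50 is the concentration that inhibits growth by half. TGI denotes the concentration required for complete inhibition of growth.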 Where a SMILES comes first, the peptide text is derived from it.

Legend:
Experiment in all cases: DTP human tumour cell line panel, 48 h
[1] = tested on: KM12 colon
[2] = tested on: NCI-H226 lung
[3] = tested on: SF-295 CNS
[4] = tested on: SF-268 CNS
[5] = tested on: MOLT-4 leukemia
[6] = tested on: NCI/ADR-RES ovarian
[7] = tested on: SK-OV-3 ovarian
[8] = tested on: COLO 205 colon
[9] = tested on: OVCAR-5 ovarian
[10] = tested on: RXF 393 renal

SMILES | TGI [1] [µM] | TGI [2] [µM] | TGI [3] [µM] | TGI [4] [µM] | TGI [5] [µM] | TGI [6] [µM] | TGI [7] [µM] | TGI [8] [µM] | TGI [9] [µM] | TGI [10] [µM] | GI50 [6] [µM] | GI50 [1] [µM] | GI50 [2] [µM] | GI50 [3] [µM] | GI50 [4] [µM] | GI50 [10] [µM] | GI50 [5] [µM] | GI50 [7] [µM] | GI50 [8] [µM] | GI50 [9] [µM]
CCC(C)C(NC(=O)C1CCCN1C(=O)C(CC(C)C)NC(=O)C(CC(C)C)NC(=O)C(N)CC(C)C)C(=O)NC(C(=O)NCC(=O)NC(CC(N)=O)C(=O)NC(CC(C)C)C(=O)NC(CC(C)C)C(=O)NC(CC(C)C)C(N)=O)C(C)C (centres undefined) (H-LLLPIVGNLLL-NH2; configuration not given here) | > 50 | > 50 | > 50 | > 50 | > 50 | > 50 | > 50 | > 50 | > 50 |  |  |  |  |  |  |  |  |  |  | 
Cc1cnoc1NS(=O)(=O)c1ccc(Nc2nnc(/C=C/c3c(O)ccc4ccccc34)c(=O)n2N)cc1 |  |  | > 100 | > 100 | > 100 | 66.9 | > 100 |  | 77.9 | 80.2 |  |  |  |  |  |  |  |  |  | 
Cc1nc2ncn3c(c-2c1Cc1ccccc1)NC=C(O)N3 | > 100 | > 100 | > 100 | > 100 | > 100 | > 100 | > 100 | > 100 | > 100 | 64 |  |  |  |  |  |  |  |  |  | 
COC(=O)C[C@H](COCc1ccccc1)NC(=O)C[C@H](COCc1ccccc1)NC(=O)OC(C)(C)C | > 100 | > 100 | > 100 | 40.5 | > 100 | 72.2 | 59.8 | > 100 | 99.8 | 63.3 |  |  |  |  |  |  |  |  |  | 
CCCCCOC(=O)c1cc2cc(CCl)ccc2oc1=O | 31.2 | 38 | 60.4 | 41.9 | > 81.7 | 53.3 | 45 | 16.3 | 31.6 | 14.6 |  |  |  |  |  |  |  |  |  | 
Nc1ccc(-c2nc3cc(F)ccc3s2)cc1CO | > 100 | 0.409 | 34.8 | 68.8 | > 100 | > 100 | 49.3 | > 100 | > 100 | 34.9 |  |  |  |  |  |  |  |  |  | 
O=C1c2ccccc2C(C2c3ccccc3C(=O)c3cc(Br)ccc32)c2ccc(Br)cc21 (centres undefined) | > 100 | > 100 | > 100 | > 100 | > 100 | > 100 | > 100 | > 100 | > 100 | > 100 |  |  |  |  |  |  |  |  |  | 
O=C(O)C(O)C(O)C(O)C(=O)CO (centres undefined) | > 100 | > 100 | > 100 | > 100 | > 100 | > 100 | > 100 | > 100 | > 100 | > 100 |  |  |  |  |  |  |  |  |  | 
COC1CC(CC2CCC(C)C(C(C)C(=O)O)O2)OC2(OC(C)(C3CCC(C)(C4OC(C5OC(O)(CO)C(C)CC5C)CC4C)O3)CC2C)C1C (centres undefined) | 11.9 | 21.3 | 11.6 | 36.5 | 6.13 | > 66.1 | 46.3 | 2.67 | 69.6 | 1.15 | 2.58 |  |  |  |  |  |  |  |  | 
NC(=S)N1N=C(c2ccccc2O)CC1c1ccccc1 (centres undefined) | 43.4 | 53.8 | 29.2 | 80.6 | 78.7 | 50.6 | 49.8 | 26.5 | 50.9 | 41.6 |  |  |  |  |  |  |  |  |  | 
CCCN1C(=O)CSC1=Nc1ccc2cc3ccc(N=C4SCC(=O)N4CCC)cc3nc2c1 | > 100 | > 100 | > 100 | > 100 | > 100 | > 100 | > 100 | > 100 | > 100 | > 100 | 63.1 | 35.9 | 16.5 | 30 | 35.5 | 75.8 | > 100 | 39.4 | > 100 | > 100
N#Cc1c(N)nc2c(c1-c1ccc(Br)cc1)CSc1ccccc1-2 | > 100 | 85.6 |  | > 100 | > 100 | > 100 | > 100 | 32.2 |  | 73.8 |  |  |  |  |  |  |  |  |  | 
O=c1c2ccccc2[nH]c(=S)n1-c1ccc(N=Nc2cccc3cc(O)ccc23)cc1 | > 100 | > 100 | > 100 | > 100 | > 100 | > 100 | > 100 | > 100 | > 100 | > 100 |  |  |  |  |  |  |  |  |  | 
CC1CN=C(NS(=O)(=O)c2cc(C(=O)Nc3ccc(F)cc3)c(Cl)cc2S)NN1 (centres undefined) | > 100 | > 100 | > 100 | > 100 | > 100 | > 100 | > 100 | > 100 | > 100 |  |  |  |  |  |  |  |  |  |  | 
